Data published in ChEMBL document CHEMBL5465560, “Selectivity Literature for EUbOPEN Chemogenomic Library” (2024).
pIC50: −log10 of the molar value.

How the values were obtained:
[1] = target: Cyclin-dependent kinase 2/cyclin A (Homo sapiens, UniProt P24941); experiment: Selectivity interaction (Enyzmatic assay) EUB0000601a CDK2; type: protein-complex assay
[2] = target: Serine/threonine-protein kinase 38 (Homo sapiens) (UniProt Q15208); experiment: Selectivity interaction (ActivX KiNativ screen (kinase selectivity in THP-1 cell lysates)) EUB0000639a STK38; type: subcellular; details: lysate, at 0.2 µM
[3] = target: G protein-coupled receptor kinase 4 (Homo sapiens) (UniProt P32298); experiment: Selectivity interaction (Kinase panel (Invitrogen)) EUB0000639a GRK4; details: at 200 nM
[4] = system: Epidermal growth factor receptor (Homo sapiens), P00533 [UNDEFINED MUTATION]; experiment: Selectivity interaction (KinomeScan (DiscoverX)) EUB0000045b EGFR; details: at 1 µM
[5] = target: Tyrosine-protein kinase Yes (Homo sapiens) (UniProt P07947); details: at 10 µM
[6] = target: T1, Mitogen-activated protein kinase kinase kinase 6 (Homo sapiens) (UniProt O95382); experiment: Selectivity interaction (KinomeScan (DiscoverX)) EUB0001619a MAP3K6; details: at 1 µM
T1 sequence (whole entry): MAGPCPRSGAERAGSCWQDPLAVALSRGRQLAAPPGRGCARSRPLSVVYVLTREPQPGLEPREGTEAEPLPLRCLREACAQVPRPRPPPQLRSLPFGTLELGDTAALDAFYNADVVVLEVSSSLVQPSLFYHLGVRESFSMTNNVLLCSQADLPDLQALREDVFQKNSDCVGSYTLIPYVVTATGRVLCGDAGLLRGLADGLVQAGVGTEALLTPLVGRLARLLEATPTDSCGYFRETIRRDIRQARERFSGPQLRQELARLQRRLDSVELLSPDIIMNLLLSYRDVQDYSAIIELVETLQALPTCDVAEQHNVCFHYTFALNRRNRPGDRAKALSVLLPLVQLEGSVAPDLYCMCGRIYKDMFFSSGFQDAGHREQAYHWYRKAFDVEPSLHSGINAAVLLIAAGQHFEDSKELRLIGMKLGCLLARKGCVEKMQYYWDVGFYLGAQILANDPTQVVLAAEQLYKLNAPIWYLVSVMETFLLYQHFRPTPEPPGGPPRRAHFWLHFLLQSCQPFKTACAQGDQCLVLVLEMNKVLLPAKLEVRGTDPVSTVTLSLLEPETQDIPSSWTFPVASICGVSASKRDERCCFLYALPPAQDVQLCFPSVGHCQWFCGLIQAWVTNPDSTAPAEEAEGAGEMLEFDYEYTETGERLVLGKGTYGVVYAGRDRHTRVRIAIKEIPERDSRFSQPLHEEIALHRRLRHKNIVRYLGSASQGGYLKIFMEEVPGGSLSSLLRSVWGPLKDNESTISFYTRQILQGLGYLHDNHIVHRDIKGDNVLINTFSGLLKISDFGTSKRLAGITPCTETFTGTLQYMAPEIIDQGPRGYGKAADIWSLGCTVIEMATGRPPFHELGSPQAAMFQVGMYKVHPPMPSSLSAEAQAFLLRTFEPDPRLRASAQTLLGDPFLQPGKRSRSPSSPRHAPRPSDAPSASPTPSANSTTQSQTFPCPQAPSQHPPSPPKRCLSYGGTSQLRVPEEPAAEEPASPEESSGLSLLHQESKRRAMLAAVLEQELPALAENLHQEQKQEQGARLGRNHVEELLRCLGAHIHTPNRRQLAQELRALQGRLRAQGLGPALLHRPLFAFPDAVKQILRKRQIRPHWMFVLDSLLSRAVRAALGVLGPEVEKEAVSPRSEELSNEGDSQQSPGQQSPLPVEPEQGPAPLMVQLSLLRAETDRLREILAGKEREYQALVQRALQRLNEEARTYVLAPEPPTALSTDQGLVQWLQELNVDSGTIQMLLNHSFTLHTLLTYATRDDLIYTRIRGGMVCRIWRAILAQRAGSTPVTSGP

[7] = target: T2, Serine/threonine-protein kinase haspin (Homo sapiens) (UniProt Q8TF76); experiment: Selectivity interaction (KinomeScan (DiscoverX)) EUB0001619a GSG2; details: at 1 µM
T2 sequence (whole entry): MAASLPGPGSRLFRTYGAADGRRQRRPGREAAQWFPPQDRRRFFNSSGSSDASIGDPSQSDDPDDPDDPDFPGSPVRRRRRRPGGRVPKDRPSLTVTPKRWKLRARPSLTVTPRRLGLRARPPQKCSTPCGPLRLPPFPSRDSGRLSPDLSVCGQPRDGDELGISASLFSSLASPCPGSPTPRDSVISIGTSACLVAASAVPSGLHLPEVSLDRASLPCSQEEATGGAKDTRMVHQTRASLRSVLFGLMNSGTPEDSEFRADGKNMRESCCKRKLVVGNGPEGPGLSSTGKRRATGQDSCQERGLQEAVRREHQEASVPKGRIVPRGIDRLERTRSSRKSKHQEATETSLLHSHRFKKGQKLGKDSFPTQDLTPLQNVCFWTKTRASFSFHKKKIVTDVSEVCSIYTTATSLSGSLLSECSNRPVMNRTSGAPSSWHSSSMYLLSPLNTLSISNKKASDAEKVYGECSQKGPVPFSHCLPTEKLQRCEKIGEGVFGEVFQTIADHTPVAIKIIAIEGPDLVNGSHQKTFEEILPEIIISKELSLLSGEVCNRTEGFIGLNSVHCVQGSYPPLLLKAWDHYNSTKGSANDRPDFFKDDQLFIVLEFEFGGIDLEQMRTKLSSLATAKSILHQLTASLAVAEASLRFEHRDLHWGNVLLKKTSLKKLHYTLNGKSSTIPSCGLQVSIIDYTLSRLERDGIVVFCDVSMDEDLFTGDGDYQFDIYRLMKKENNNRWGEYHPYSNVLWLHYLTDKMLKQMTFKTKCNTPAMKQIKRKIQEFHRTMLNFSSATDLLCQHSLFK

[8] = target: Ribosomal protein S6 kinase alpha-4 (Homo sapiens) (UniProt O75676); experiment: Selectivity interaction (KinomeScan (DiscoverX)) EUB0000655a RPS6KA4; details: at 10 µM
Sequence of Ribosomal protein S6 kinase alpha-4 (Homo sapiens) (O75676 whole entry, looked up): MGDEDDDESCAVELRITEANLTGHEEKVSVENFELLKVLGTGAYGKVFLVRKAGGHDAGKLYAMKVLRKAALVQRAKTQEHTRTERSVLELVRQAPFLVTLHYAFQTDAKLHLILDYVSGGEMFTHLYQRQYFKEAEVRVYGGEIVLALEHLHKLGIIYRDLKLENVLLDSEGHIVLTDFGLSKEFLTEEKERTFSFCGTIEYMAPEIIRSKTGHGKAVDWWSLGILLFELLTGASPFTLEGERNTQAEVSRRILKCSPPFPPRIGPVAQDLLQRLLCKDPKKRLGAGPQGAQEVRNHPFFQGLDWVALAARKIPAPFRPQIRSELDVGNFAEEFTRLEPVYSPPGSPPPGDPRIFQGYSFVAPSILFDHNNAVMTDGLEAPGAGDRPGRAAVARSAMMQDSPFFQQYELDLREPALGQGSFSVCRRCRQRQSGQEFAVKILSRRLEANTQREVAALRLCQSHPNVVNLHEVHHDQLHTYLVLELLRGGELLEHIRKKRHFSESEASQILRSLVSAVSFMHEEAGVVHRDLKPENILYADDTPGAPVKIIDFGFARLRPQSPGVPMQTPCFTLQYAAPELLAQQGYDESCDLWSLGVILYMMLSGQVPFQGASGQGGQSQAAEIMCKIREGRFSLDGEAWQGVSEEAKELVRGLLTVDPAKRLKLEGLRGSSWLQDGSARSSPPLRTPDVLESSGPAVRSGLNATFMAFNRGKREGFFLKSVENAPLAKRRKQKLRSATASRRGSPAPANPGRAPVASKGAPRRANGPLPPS

Sequence of G protein-coupled receptor kinase 4 (Homo sapiens) (P32298 whole entry, looked up): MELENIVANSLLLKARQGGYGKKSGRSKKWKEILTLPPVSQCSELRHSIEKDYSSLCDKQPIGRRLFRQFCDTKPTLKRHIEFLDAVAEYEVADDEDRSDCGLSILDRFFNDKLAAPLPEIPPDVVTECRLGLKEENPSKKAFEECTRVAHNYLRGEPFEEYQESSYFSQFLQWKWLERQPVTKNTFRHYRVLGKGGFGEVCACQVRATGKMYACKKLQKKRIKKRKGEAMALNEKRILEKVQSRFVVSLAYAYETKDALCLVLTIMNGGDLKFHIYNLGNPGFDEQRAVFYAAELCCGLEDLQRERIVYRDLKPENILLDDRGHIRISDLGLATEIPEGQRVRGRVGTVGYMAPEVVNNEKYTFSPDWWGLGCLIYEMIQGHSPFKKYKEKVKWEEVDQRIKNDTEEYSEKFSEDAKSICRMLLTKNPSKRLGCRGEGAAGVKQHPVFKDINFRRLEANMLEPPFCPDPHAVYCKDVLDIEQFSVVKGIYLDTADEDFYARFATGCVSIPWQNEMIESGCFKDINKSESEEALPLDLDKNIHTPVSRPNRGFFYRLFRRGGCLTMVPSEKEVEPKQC
Sequence of Serine/threonine-protein kinase 38 (Homo sapiens) (Q15208 2-465 limits assumed): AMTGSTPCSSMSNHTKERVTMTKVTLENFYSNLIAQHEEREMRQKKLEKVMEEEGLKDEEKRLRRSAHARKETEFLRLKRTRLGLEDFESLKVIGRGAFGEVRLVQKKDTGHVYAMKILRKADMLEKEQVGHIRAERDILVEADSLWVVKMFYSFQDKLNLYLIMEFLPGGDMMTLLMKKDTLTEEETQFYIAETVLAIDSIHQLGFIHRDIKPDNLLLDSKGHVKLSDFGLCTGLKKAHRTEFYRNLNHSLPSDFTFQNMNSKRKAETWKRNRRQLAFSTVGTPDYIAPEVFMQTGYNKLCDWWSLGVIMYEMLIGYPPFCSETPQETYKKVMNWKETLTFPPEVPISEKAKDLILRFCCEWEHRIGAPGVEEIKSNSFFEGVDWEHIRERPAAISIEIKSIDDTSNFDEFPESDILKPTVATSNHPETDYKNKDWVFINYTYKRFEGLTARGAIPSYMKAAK
Sequence of Tyrosine-protein kinase Yes (Homo sapiens) (P07947 2-543 limits assumed): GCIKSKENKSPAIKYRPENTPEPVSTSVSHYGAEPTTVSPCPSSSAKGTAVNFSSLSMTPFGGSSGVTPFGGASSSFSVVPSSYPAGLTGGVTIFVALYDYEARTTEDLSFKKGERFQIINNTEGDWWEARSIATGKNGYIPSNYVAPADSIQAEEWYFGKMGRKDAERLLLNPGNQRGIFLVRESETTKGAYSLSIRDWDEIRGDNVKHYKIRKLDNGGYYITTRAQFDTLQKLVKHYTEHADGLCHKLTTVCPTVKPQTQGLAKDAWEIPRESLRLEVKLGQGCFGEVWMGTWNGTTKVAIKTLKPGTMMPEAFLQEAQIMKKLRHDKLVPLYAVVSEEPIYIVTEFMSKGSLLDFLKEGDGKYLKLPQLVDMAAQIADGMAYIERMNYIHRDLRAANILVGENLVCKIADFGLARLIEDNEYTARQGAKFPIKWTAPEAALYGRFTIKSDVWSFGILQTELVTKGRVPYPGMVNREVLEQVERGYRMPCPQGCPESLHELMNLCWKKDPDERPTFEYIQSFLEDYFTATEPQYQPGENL
Sequence of Epidermal growth factor receptor (Homo sapiens), P00533 [UNDEFINED MUTATION] (P00533 whole entry, looked up, change not shown): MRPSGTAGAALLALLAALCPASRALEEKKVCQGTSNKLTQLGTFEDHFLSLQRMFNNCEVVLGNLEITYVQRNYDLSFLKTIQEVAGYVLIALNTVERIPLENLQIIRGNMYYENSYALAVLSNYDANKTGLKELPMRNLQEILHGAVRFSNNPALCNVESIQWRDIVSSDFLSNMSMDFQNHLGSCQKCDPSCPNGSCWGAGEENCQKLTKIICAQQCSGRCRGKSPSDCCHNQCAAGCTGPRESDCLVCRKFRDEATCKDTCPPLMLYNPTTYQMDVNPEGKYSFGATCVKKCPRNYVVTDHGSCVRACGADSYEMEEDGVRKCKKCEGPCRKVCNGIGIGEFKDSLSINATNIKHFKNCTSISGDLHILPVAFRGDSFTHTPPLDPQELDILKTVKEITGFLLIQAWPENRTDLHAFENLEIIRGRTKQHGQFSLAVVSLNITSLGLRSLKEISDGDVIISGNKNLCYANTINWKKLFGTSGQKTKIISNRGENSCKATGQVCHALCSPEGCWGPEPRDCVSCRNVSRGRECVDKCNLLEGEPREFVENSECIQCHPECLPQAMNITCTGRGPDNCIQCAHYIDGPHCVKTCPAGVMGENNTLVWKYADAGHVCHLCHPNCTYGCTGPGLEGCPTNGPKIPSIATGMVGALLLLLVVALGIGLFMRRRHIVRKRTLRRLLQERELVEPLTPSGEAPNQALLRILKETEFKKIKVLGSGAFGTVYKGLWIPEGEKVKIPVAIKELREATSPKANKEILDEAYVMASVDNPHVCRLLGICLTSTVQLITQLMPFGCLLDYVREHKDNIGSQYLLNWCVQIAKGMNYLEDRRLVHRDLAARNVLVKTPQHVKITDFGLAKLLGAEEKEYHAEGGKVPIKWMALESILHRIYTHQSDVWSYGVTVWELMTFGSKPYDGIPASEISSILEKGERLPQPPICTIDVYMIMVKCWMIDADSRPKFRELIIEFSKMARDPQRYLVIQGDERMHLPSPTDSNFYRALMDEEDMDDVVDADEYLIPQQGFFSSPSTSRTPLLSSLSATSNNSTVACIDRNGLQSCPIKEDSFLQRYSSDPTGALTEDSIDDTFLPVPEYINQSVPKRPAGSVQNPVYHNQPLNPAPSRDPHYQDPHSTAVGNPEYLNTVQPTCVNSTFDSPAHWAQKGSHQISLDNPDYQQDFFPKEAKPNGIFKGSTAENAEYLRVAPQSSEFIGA

CCc1cc(Nc2nccc(-c3c(-c4ccc(OC)c(C(=O)Nc5c(F)cccc5F)c4)nc4ccccn34)n2)c(OC)cc1N1CCC(N2CCN(S(C)(=O)=O)CC2)CC1
pIC50 [1]: < 5.00

CC[C@@H]1[C@H](F)C(=O)N[C@@H]1COc1nccc2cc(C(N)=O)c(OC)cc12 [ZIMLOVISERTIB]
% of inhibition [2]: 22.6%
% of inhibition [3]: -5.8%

C=CC(=O)Nc1cc(-n2c(=O)ccc3cnc4ccc(-c5ccc(NS(C)(=O)=O)cc5)cc4c32)ccc1C
% of control [4]: 51%

Cc1cc([C@@H](C)Nc2ccccc2C(=O)O)c2nc(N3CCOCC3)cc(=O)n2c1 [AZD-6482]
% of control [5]: 100%

N#Cc1cccc(-c2c[nH]c3ncnc(N4CCOCC4)c23)c1
% of control [6]: 57%
% of control [7]: 46%

CN(C)CCOc1ccc(-c2nc(-c3ccncc3)c(-c3ccc4c(c3)CC/C4=N\O)[nH]2)cc1
% of control [8]: 100%
